These results are taken from patent US8329755B2, “Methods for treating retroviral infections” (Roche Palo Alto LLC, priority 2004, dated 2012).

One may read the melting point as the temperature of the solid-liquid transition. In the case of `CCC(=O)NS(=O)(=O)c1ccc(NC(=O)Cc2ccc(Cl)c(Oc3cc(Cl)cc(C#N)c3)c2F)c(Cl)c1.[Na]`, the melting point is 155.4 to 157.5 °C.

Take `Cl.N#Cc1cc(Cl)cc(Oc2c(Cl)ccc(CC(=O)Nc3ccc(S(=O)(=O)NC(=O)CCN)cc3Cl)c2F)c1`: the melting point lay within 199.3 to 199.6 °C.

`COCC(=O)NS(=O)(=O)c1ccc(NC(=O)Cc2ccc(Cl)c(Oc3cc(Cl)cc(C#N)c3)c2F)c(Cl)c1.[Na]` returned a melting point of 151.7 to 152.3 °C.

As for `N#Cc1cc(Cl)cc(Oc2c(Cl)ccc(CC(=O)Nc3ccc(S(=O)(=O)NC(=O)CO)cc3Cl)c2F)c1.[Na]`, the melting point fell in the range of 178 to 179.5 °C.

On to `Cc1cc(C(=O)CN2CCOCC2)ccc1NC(=O)Cc1ccc(C)c(Oc2cc(Cl)cc(C#N)c2)c1.O=C(O)C(F)(F)F`, for which the melting point was in the range of 110.3 to 110.5 °C.

`COCCC(=O)NS(=O)(=O)c1ccc(NC(=O)Cc2ccc(Cl)c(Oc3cc(Cl)cc(C#N)c3)c2F)c(Cl)c1.[Na]` yielded a melting point of 133.1 to 140.7 °C.

As for `CCCCC(=O)NS(=O)(=O)c1ccc(NC(=O)Cc2ccc(Cl)c(Oc3cc(Cl)cc(C#N)c3)c2F)c(Cl)c1.[Na]`, the melting point was in the range of 157.6 to 159.2 °C.

The compound `CC(C)CC(=O)NS(=O)(=O)c1ccc(NC(=O)Cc2ccc(Cl)c(Oc3cc(Cl)cc(C#N)c3)c2F)c(Cl)c1.[Na]` gave a melting point of 159.3 to 163.4 °C.

In turn, `CCN(CC)CC(=O)NS(=O)(=O)c1ccc(NC(=O)Cc2ccc(Cl)c(Oc3cc(Cl)cc(C#N)c3)c2F)c(Cl)c1.Cl` registered a melting point of 195.3 to 197.2 °C.

`CC(C)CCC(=O)NS(=O)(=O)c1ccc(NC(=O)Cc2ccc(Cl)c(Oc3cc(Cl)cc(C#N)c3)c2F)c(Cl)c1.[Na]`: the melting point was in the range of 195.6 to 197 °C.

On to `Cl.N#Cc1cc(Cl)cc(Oc2c(Cl)ccc(CC(=O)Nc3ccc(S(=O)(=O)NC(=O)CN4CCOCC4)cc3Cl)c2F)c1`, for which the melting point was 223.3 to 225 °C.

Take `CCC(=O)NS(=O)(=O)c1ccc(NC(=O)Cc2ccc(C)c(Oc3cc(Cl)cc(C#N)c3)c2F)c(Cl)c1.[Na]`: the melting point was 158.8 to 162 °C.

With `Cc1cc(S(=O)(=O)NC(=O)[C@@H](N)C(C)C)ccc1NC(=O)Cc1ccc(Cl)c(Oc2cc(Cl)cc(C#N)c2)c1F.Cl`, the melting point lay in the range of 169 to 180.3 °C.

Compound `Cc1cc(S(=O)(=O)NC(=O)c2cccnc2)ccc1NC(=O)Cc1ccc(Cl)c(Oc2cc(Cl)cc(C#N)c2)c1F.Cl` had a melting point of 261.8 to 263.6 °C.

Compound `N#Cc1cc(Cl)cc(Oc2cc(CC(=O)Nc3ccc(S(N)(=O)=O)cc3)ccc2Cl)c1` [Compound I-1, 2-[4-Chloro-3-(3-chloro-5-cyano-phenoxy)-phenyl]-N-(4-sulfamoyl-phenyl)-acetamide] came in with a melting point of 210.5 to 214 °C.

As to `N#Cc1cc(C#N)cc(Oc2cc(CC(=O)Nc3ccc(S(N)(=O)=O)cc3)ccc2Cl)c1` [Compound I-2, 2-[4-Chloro-3-(3,5-dicyano-phenoxy)-phenyl]-N-(4-sulfamoyl-phenyl)-acetamide], the melting point lay within 218 to 219 °C.

`Cc1cc(OCCCS(N)(=O)=O)ccc1NC(=O)Cc1ccc(Cl)c(Oc2cc(Cl)ccc2Br)c1` [Compound I-3, 2-[3-(2-Bromo-5-chloro-phenoxy)-4-chloro-phenyl]-N-[2-methyl-4-(3-sulfamoyl-propoxy)-phenyl]-acetamide]: the melting point is 190.1 to 192.2 °C.

With `N#Cc1cc(C#N)cc(Oc2c(Cl)ccc(CC(=O)Nc3ccc(S(N)(=O)=O)cc3)c2F)c1` [Compound I-9, 2-[4-Chloro-3-(3,5-dicyano-phenoxy)-2-fluoro-phenyl]-N-(4-sulfamoyl-phenyl)-acetamide], the melting point was in the range of 135.7 to 138.1 °C.

Regarding `NS(=O)(=O)c1ccc(NC(=O)Cc2ccc(Cl)c(Oc3cc(Cl)cc(Cl)c3Cl)c2F)cc1` [Compound I-10, 2-[4-Chloro-2-fluoro-3-(2,3,5-trichloro-phenoxy)-phenyl]-N-(4-sulfamoyl-phenyl)-acetamide], the melting point fell in the range of 247 to 249.9 °C.

In the case of `Cc1ccc(CC(=O)Nc2ccc(S(N)(=O)=O)cc2)cc1Oc1cc(F)cc(C#N)c1` [Compound I-11, 2-[3-(3-Cyano-5-fluoro-phenoxy)-4-methyl-phenyl]-N-(4-sulfamoyl-phenyl)-acetamide], the melting point fell in the range of 165.8 to 168.1 °C.

The compound `Cc1ccc(CC(=O)Nc2ccccc2Cl)cc1Oc1cc(F)cc(C#N)c1` [Compound I-12, N-(2-Chloro-phenyl)-2-[3-(3-cyano-5-fluoro-phenoxy)-4-methyl-phenyl]-acetamide] displayed a melting point of 131.1 to 132.2 °C.

For `N#Cc1cc(Oc2c(Cl)ccc(CC(=O)Nc3ccc(S(N)(=O)=O)cc3)c2F)cc(C(F)F)c1` [Compound I-13, 2-[4-Chloro-3-(3-cyano-5-difluoromethyl-phenoxy)-2-fluoro-phenyl]-N-(4-sulfamoyl-phenyl)-acetamide], the melting point was 214 to 218 °C.

In turn, `N#Cc1cc(Oc2c(Cl)ccc(CC(=O)Nc3ccccc3Cl)c2F)cc(C(F)F)c1` [Compound I-14, 2-[4-Chloro-3-(3-cyano-5-difluoromethyl-phenoxy)-2-fluoro-phenyl]-N-(2-chloro-phenyl)-acetamide] registered a melting point of 169.5 to 171 °C.

Regarding `CCc1ccc(CC(=O)Nc2ccc(S(N)(=O)=O)cc2)cc1Oc1cc(Cl)ccc1Br` [Compound I-15, 2-[3-(2-Bromo-5-chloro-phenoxy)-4-ethyl-phenyl]-N-(4-sulfamoyl-phenyl)-acetamide], the melting point lay within 193.7 to 195.9 °C.

`CCc1ccc(CC(=O)Nc2ccccc2Cl)cc1Oc1cc(Cl)ccc1Br` [Compound I-16, 2-[3-(2-Bromo-5-chloro-phenoxy)-4-ethyl-phenyl]-N-(2-chloro-phenyl)-acetamide] came in with a melting point of 154 to 155.5 °C.

`CCc1ccc(CC(=O)Nc2ccc(S(N)(=O)=O)cc2)cc1Oc1cc(Cl)ccc1C#N` [Compound I-17, 2-[3-(5-Chloro-2-cyano-phenoxy)-4-ethyl-phenyl]-N-(4-sulfamoyl-phenyl)-acetamide] showed a melting point of 198.1 to 202.6 °C.

For the compound `CCc1ccc(CC(=O)Nc2ccccc2Cl)cc1Oc1cc(Cl)ccc1C#N` [Compound I-18, 2-[3-(5-Chloro-2-cyano-phenoxy)-4-ethyl-phenyl]-N-(2-chloro-phenyl)-acetamide], the melting point fell in the range of 168 to 169.9 °C.

`CCc1ccc(CC(=O)Nc2ccc(S(N)(=O)=O)cc2)cc1Oc1cc(Cl)ccc1Cl` [Compound I-19, 2-[3-(2,5-Dichloro-phenoxy)-4-ethyl-phenyl]-N-(4-sulfamoyl-phenyl)-acetamide] gave a melting point of 190 to 193.4 °C.

For the compound `CCc1ccc(CC(=O)Nc2ccc(S(N)(=O)=O)cc2)cc1Oc1c(Cl)cccc1Cl` [Compound I-20, 2-[3-(2,6-Dichloro-phenoxy)-4-ethyl-phenyl]-N-(4-sulfamoyl-phenyl)-acetamide], the melting point was in the range of 222.5 to 225 °C.

`CCc1ccc(CC(=O)Nc2ccccc2Cl)cc1Oc1cc(Cl)ccc1Cl` [Compound I-21, N-(2-Chloro-phenyl)-2-[3-(2,5-dichloro-phenoxy)-4-ethyl-phenyl]-acetamide]: the melting point lay within 146.3 to 147.1 °C.

As to `CCc1ccc(CC(=O)Nc2ccc(S(N)(=O)=O)cc2)cc1Oc1cc(Cl)cc(Br)c1` [Compound I-22, 2-[3-(3-Bromo-5-chloro-phenoxy)-4-ethyl-phenyl]-N-(4-sulfamoyl-phenyl)-acetamide], the melting point is 216.1 to 221.3 °C.

`CCc1ccc(CC(=O)Nc2ccccc2Cl)cc1Oc1c(Cl)cccc1Cl` [Compound I-23, N-(2-Chloro-phenyl)-2-[3-(2,6-dichloro-phenoxy)-4-ethyl-phenyl]-acetamide] came in with a melting point of 107 to 110.5 °C.

For the compound `CCc1ccc(CC(=O)Nc2ccccc2Cl)cc1Oc1cc(Cl)cc(Br)c1` [Compound I-24, 2-[3-(3-Bromo-5-chloro-phenoxy)-4-ethyl-phenyl]-N-(2-chloro-phenyl)-acetamide], the melting point is 119.9 to 122.2 °C.

With `CC(C)c1ccc(CC(=O)Nc2ccc(S(N)(=O)=O)cc2)cc1Oc1cc(Cl)ccc1Br` [Compound I-26, 2-[3-(2-Bromo-5-chloro-phenoxy)-4-isopropyl-phenyl]-N-(4-sulfamoyl-phenyl)-acetamide], the melting point is 204.1 to 206.7 °C.

Compound `CC(C)c1ccc(CC(=O)Nc2ccccc2Cl)cc1Oc1cc(Cl)ccc1Br` [Compound I-27, 2-[3-(2-Bromo-5-chloro-phenoxy)-4-isopropyl-phenyl]-N-(2-chloro-phenyl)-acetamide] gave a melting point of 142.9 to 143.6 °C.

For the compound `N#Cc1cc(C#N)cc(Oc2c(Cl)ccc(CC(=O)Nc3ccccc3Cl)c2F)c1` [Compound I-28, 2-[4-Chloro-3-(3,5-dicyano-phenoxy)-2-fluoro-phenyl]-N-(2-chloro-phenyl)-acetamide], the melting point lay in the range of 182.6 to 196.5 °C.

With `Cc1ccc(CC(=O)Nc2ccc(S(N)(=O)=O)cc2)cc1Oc1cc(Cl)ccc1Br` [Compound I-30, 2-[3-(2-Bromo-5-chloro-phenoxy)-4-methyl-phenyl]-N-(4-sulfamoyl-phenyl)-acetamide], the melting point fell in the range of 236.9 to 239.3 °C.

In turn, `Cc1cc(S(N)(=O)=O)ccc1NC(=O)Cc1ccc(C)c(Oc2cc(Cl)ccc2Br)c1` [Compound I-31, 2-[3-(2-Bromo-5-chloro-phenoxy)-4-methyl-phenyl]-N-(2-methyl-4-sulfamoyl-phenyl)-acetamide] showed a melting point of 200.5 to 203.5 °C.

In turn, `Cc1cc(S(N)(=O)=O)ccc1NC(=O)Cc1ccc(Cl)c(Oc2cc(C#N)cc(C#N)c2)c1F` [Compound I-32, 2-[4-Chloro-3-(3,5-dicyano-phenoxy)-2-fluoro-phenyl]-N-(2-methyl-4-sulfamoyl-phenyl)-acetamide] registered a melting point of 248.4 to 250.8 °C.

For `Cc1ccc(CC(=O)Nc2ccccc2Cl)cc1Oc1cc(Cl)ccc1Br` [Compound I-33, 2-[3-(2-Bromo-5-chloro-phenoxy)-4-methyl-phenyl]-N-(2-chloro-phenyl)-acetamide], the melting point fell in the range of 133.9 to 135.9 °C.

Compound `Cc1ccc(CC(=O)Nc2ccccc2Cl)cc1Oc1cc(C#N)cc(C#N)c1` [Compound I-34, N-(2-Chloro-phenyl)-2-[3-(3,5-dicyano-phenoxy)-4-methyl-phenyl]-acetamide] had a melting point of 175.1 to 177.5 °C.
